{"source": "paper PMC10006169", "about": "“A phase I trial of LXS196, a protein kinase C (PKC) inhibitor, for metastatic uveal melanoma” (British Journal of Cancer, 2023)", "key": {"92.1 human UM xenograft": {"tested_on": "92.1 human UM xenograft", "parameters": "method as in PMID 27507190", "conditions": "doses below MTD; cited from earlier work"}, "PKC delta (pPKCd, S299)": {"tested_on": "PKC delta (pPKCd, S299)", "assay": "pPKC delta in tumour biopsies (Sally Sue microcapillary electrophoresis)", "type": "in vivo, human", "conditions": "QD schedule", "description": "(§1) Fresh metastatic tumour biopsies were collected at baseline (prior to first dose) and on treatment at C1D15 to evaluate the modulation of PKC substrate proteins in tumours following exposure to LXS196 and to perform exploratory transcriptome and targeted DNA sequencing. Whole blood samples (peripheral blood mononuclear cells; PBMCs) were collected pre-dose on C1D1 and D15, and at various time points post-dose on C1D1, D2, D3, D15 and D16 to evaluate the modulation of PKC substrate proteins in a surrogate tissue. Owing to the exploratory nature of this phase I study, formal statistical tests were not planned to be performed. Data are presented using descriptive statistics and visualisations. Continuous variables are described with the mean and range. […]\n(§2) Custom assays were developed to measure the status of the PKC pathway. In brief, tumour tissue was homogenised in lysis buffer, and total protein concentrations were determined using a bicinchoninic acid (BCA) assay (Pierce). […] Total and phosphorylated PKCdelta (PKCd; pPKCd, phosphorylated at S299) levels were determined using microcapillary electrophoresis on the Sally Sue platform (Protein Simple, San Jose, CA, USA). Area under the peaks corresponding to the target was measured and used for further calculation. […]\nTotal and phosphorylated PKC delta were measured in all feasible tumour biopsies. […] The normalised PKC delta is calculated as follows: […]"}, "[1]": {"tested_on": "metastatic uveal melanoma (MUM)", "assay": "Tumour response (RECIST v1.1) and progression-free survival", "type": "in vivo, human", "description": "Tumour response was assessed locally by computed tomography (CT) and/or magnetic resonance imaging (MRI) of the chest, abdomen and pelvis, according to Response Evaluation Criteria in Solid Tumours (RECIST) v1.1 at baseline, on C3D1 and every two cycles thereafter until cycle 11. After 11 cycles of treatment, response was evaluated every three cycles until the end of treatment. Fresh metastatic tumour biopsies were collected at baseline (prior to first dose) and on treatment at C1D15 to evaluate the modulation of PKC substrate proteins in tumours following exposure to LXS196 and to perform exploratory transcriptome and targeted DNA sequencing. Whole blood samples (peripheral blood mononuclear cells; PBMCs) were collected pre-dose on C1D1 and D15, and at various time points post-dose on C1D1, D2, D3, D15 and D16 to evaluate the modulation of PKC substrate proteins in a surrogate tissue. Owing to the exploratory nature of this phase I study, formal statistical tests were not planned to be performed. Data are presented using descriptive statistics and visualisations. Continuous variables are described with the mean and range. Categorical variables are described using counts and percentages. PFS is described using the Kaplan–Meier (KM) method."}, "MARCKS (pMARCKS)": {"tested_on": "MARCKS (pMARCKS)", "assay": "pMARCKS in tumour biopsies (Meso Scale Discovery)", "type": "in vivo, human", "conditions": "QD schedule", "description": "as §1, §2\nTotal and phosphorylated MARCKS were measured in all feasible tumour biopsies. […] The normalised MARCKS is calculated as follows: […]"}}, "note": "“And” between values parts separate entries of the source, which are not always exact repeats. Equal values may be shown once."}
{"molecule": "CC1(N)CCN(c2cccnc2NC(=O)c2nc(-c3ncccc3C(F)(F)F)cnc2N)CC1", "note": "[LXS196]", "values": [{"measurement": "Tumour effect as single agent", "setting": "92.1 human UM xenograft", "value": "tumour regression"}, {"measurement": "pPKC delta, mean (range) percentage change from baseline to C1D15 (normalised ratio)", "setting": "PKC delta (pPKCd, S299)", "value": "−68.1 (−91.4, −28.6) %"}, {"measurement": "BOR: complete response (CR)", "setting": "[1]; 300 mg BID (RDE) n=18", "value": "0 n (%)"}, {"measurement": "BOR: partial response (PR)", "setting": "[1]; 300 mg BID (RDE) n=18", "value": "2 (11.1%) n (%) and 2 (11.1) n (%)"}, {"measurement": "BOR: progressive disease (PD)", "setting": "[1]; 300 mg BID (RDE) n=18", "value": "3 (16.7) n (%)"}, {"measurement": "BOR: unknown", "setting": "[1]; 300 mg BID (RDE) n=18", "value": "1 (5.6) n (%)"}, {"measurement": "Kaplan–Meier PFS rate (95% CI) at 4 months", "setting": "[1]; 300 mg BID (RDE) n=18", "value": "44.4 (21.6–65.1) %"}, {"measurement": "Kaplan–Meier PFS rate (95% CI) at 6 months", "setting": "[1]; 300 mg BID (RDE) n=18", "value": "27.8 (10.1–48.9) %"}, {"measurement": "Kaplan–Meier PFS rate (95% CI) at 12 months", "setting": "[1]; 300 mg BID (RDE) n=18", "value": "22.2 (6.9–42.9) %"}, {"measurement": "Number of PFS events", "setting": "[1]; 300 mg BID (RDE) n=18", "value": "18 (100) n (%)"}, {"measurement": "PFS 25th percentile (95% CI)", "setting": "[1]; 300 mg BID (RDE) n=18", "value": "2.1 (0.8–3.6) months"}, {"measurement": "PFS 50th percentile, median PFS (95% CI)", "setting": "[1]; 300 mg BID (RDE) n=18", "value": "3.7 (2.1–5.4) months"}, {"measurement": "PFS 75th percentile (95% CI)", "setting": "[1]; 300 mg BID (RDE) n=18", "value": "7.2 (3.7–25.8) months"}, {"measurement": "PFS events: deaths", "setting": "[1]; 300 mg BID (RDE) n=18", "value": "1 (5.6) n (%)"}, {"measurement": "PFS events: progression", "setting": "[1]; 300 mg BID (RDE) n=18", "value": "17 (94.4) n (%)"}, {"measurement": "BOR: complete response (CR)", "setting": "[1]; All BID n=30", "value": "1 n (%) and 1 (3.3) n (%)"}, {"measurement": "BOR: partial response (PR)", "setting": "[1]; All BID n=30", "value": "3 n (%) and 3 (10.0) n (%)"}, {"measurement": "BOR: progressive disease (PD)", "setting": "[1]; All BID n=30", "value": "6 (20.0) n (%)"}, {"measurement": "BOR: unknown", "setting": "[1]; All BID n=30", "value": "2 (6.7) n (%)"}, {"measurement": "Kaplan–Meier PFS rate (95% CI) at 4 months", "setting": "[1]; All BID n=30", "value": "50.0 (31.3–66.1) %"}, {"measurement": "Kaplan–Meier PFS rate (95% CI) at 6 months", "setting": "[1]; All BID n=30", "value": "33.3 (17.5–50.0) %"}, {"measurement": "Kaplan–Meier PFS rate (95% CI) at 12 months", "setting": "[1]; All BID n=30", "value": "26.7 (12.6–43.0) %"}, {"measurement": "Number of PFS events", "setting": "[1]; All BID n=30", "value": "30 (100) n (%)"}, {"measurement": "Overall response rate (ORR: CR + PR)", "setting": "[1]; All BID n=30", "value": "4 (13.3%) n (%) [95% CI]"}, {"measurement": "PFS 25th percentile (95% CI)", "setting": "[1]; All BID n=30", "value": "1.9 (1.6–3.6) months"}, {"measurement": "PFS 50th percentile, median PFS (95% CI)", "setting": "[1]; All BID n=30", "value": "4.1 (3.5–7.2) months"}, {"measurement": "PFS 75th percentile (95% CI)", "setting": "[1]; All BID n=30", "value": "12.9 (5.4–25.8) months"}, {"measurement": "PFS events: deaths", "setting": "[1]; All BID n=30", "value": "2 (6.7) n (%)"}, {"measurement": "PFS events: progression", "setting": "[1]; All BID n=30", "value": "28 (93.3) n (%)"}, {"measurement": "BOR: complete response (CR)", "setting": "[1]; All QD n=38", "value": "0 n (%)"}, {"measurement": "BOR: partial response (PR)", "setting": "[1]; All QD n=38", "value": "2 n (%) and 2 (5.3) n (%)"}, {"measurement": "BOR: progressive disease (PD)", "setting": "[1]; All QD n=38", "value": "9 (23.7) n (%)"}, {"measurement": "BOR: unknown", "setting": "[1]; All QD n=38", "value": "0 n (%)"}, {"measurement": "Kaplan–Meier PFS rate (95% CI) at 4 months", "setting": "[1]; All QD n=38", "value": "36.8 (22.0–51.8) %"}, {"measurement": "Kaplan–Meier PFS rate (95% CI) at 6 months", "setting": "[1]; All QD n=38", "value": "26.3 (13.7–40.8) %"}, {"measurement": "Kaplan–Meier PFS rate (95% CI) at 12 months", "setting": "[1]; All QD n=38", "value": "0.0 (NE–NE) %"}, {"measurement": "Number of PFS events", "setting": "[1]; All QD n=38", "value": "38 (100.0) n (%)"}, {"measurement": "PFS 25th percentile (95% CI)", "setting": "[1]; All QD n=38", "value": "3.4 (1.7–3.5) months"}, {"measurement": "PFS 50th percentile, median PFS (95% CI)", "setting": "[1]; All QD n=38", "value": "3.5 (3.5–5.4) months"}, {"measurement": "PFS 75th percentile (95% CI)", "setting": "[1]; All QD n=38", "value": "6.0 (3.6–7.3) months"}, {"measurement": "PFS events: deaths", "setting": "[1]; All QD n=38", "value": "0 (0.0) n (%)"}, {"measurement": "PFS events: progression", "setting": "[1]; All QD n=38", "value": "38 (100.0) n (%)"}, {"measurement": "BOR: complete response (CR)", "setting": "[1]; All patients N=68", "value": "1 (1.5) n (%)"}, {"measurement": "BOR: partial response (PR)", "setting": "[1]; All patients N=68", "value": "5 n (%) and 5 (7.4) n (%)"}, {"measurement": "BOR: progressive disease (PD)", "setting": "[1]; All patients N=68", "value": "15 (22.1) n (%)"}, {"measurement": "BOR: unknown", "setting": "[1]; All patients N=68", "value": "2 (2.9) n (%)"}, {"measurement": "Kaplan–Meier PFS rate (95% CI) at 4 months", "setting": "[1]; All patients N=68", "value": "42.6 (30.8–54.0) %"}, {"measurement": "Kaplan–Meier PFS rate (95% CI) at 6 months", "setting": "[1]; All patients N=68", "value": 29.4, "unit": "%"}, {"measurement": "Kaplan–Meier PFS rate (95% CI) at 12 months", "setting": "[1]; All patients N=68", "value": "11.8 (5.5–20.6) %"}, {"measurement": "Number of PFS events", "setting": "[1]; All patients N=68", "value": "68 (100) n (%)"}, {"measurement": "Overall response rate (ORR: CR + PR)", "setting": "[1]; All patients N=68", "value": "8.8 n (%) [95% CI]"}, {"measurement": "PFS 25th percentile (95% CI)", "setting": "[1]; All patients N=68", "value": "2.0 (1.7–3.5) months"}, {"measurement": "PFS 50th percentile, median PFS (95% CI)", "setting": "[1]; All patients N=68", "value": "3.6 (3.5–5.4) months"}, {"measurement": "PFS 75th percentile (95% CI)", "setting": "[1]; All patients N=68", "value": "7.2 (5.4–9.4) months"}, {"measurement": "PFS events: deaths", "setting": "[1]; All patients N=68", "value": "2 n (%) and 2 (2.9) n (%)"}, {"measurement": "PFS events: progression", "setting": "[1]; All patients N=68", "value": "66 n (%) and 66 (97.1) n (%)"}, {"measurement": "Stable disease (SD) in evaluable patients", "setting": "[1]; RECIST v1.1, all doses", "value": "45/66"}, {"measurement": "Median duration of SD", "setting": "[1]; n=45, range 2.07–30.23", "value": 5.32, "unit": "months"}, {"measurement": "Median duration of response", "setting": "[1]; patients with RECIST response n=6, range 2.99–41.95", "value": "10.15 months and 10 months"}, {"measurement": "pMARCKS, mean (range) percentage change from baseline to C1D15 (normalised ratio)", "setting": "MARCKS (pMARCKS)", "value": "−39.7 (−89.7, 199) %"}]}
